Molecular target: Full length KDM2B (Homo sapiens (Human), UniProt Q8NHM5)
Test: KDM2B TR-FRET Assay for Determining Inhibitor IC50
Assay type: biochemical
Conditions: TR-FRET (HTRF), biotin-H3K36me2 peptide substrate
Text: KDM2B TR-FRET Assay for Determining Inhibitor IC50
The KDM2B TR-FRET Assay described above represents an additional embodiment of the invention.

Chain of Full length KDM2B (Q8NHM5 whole entry): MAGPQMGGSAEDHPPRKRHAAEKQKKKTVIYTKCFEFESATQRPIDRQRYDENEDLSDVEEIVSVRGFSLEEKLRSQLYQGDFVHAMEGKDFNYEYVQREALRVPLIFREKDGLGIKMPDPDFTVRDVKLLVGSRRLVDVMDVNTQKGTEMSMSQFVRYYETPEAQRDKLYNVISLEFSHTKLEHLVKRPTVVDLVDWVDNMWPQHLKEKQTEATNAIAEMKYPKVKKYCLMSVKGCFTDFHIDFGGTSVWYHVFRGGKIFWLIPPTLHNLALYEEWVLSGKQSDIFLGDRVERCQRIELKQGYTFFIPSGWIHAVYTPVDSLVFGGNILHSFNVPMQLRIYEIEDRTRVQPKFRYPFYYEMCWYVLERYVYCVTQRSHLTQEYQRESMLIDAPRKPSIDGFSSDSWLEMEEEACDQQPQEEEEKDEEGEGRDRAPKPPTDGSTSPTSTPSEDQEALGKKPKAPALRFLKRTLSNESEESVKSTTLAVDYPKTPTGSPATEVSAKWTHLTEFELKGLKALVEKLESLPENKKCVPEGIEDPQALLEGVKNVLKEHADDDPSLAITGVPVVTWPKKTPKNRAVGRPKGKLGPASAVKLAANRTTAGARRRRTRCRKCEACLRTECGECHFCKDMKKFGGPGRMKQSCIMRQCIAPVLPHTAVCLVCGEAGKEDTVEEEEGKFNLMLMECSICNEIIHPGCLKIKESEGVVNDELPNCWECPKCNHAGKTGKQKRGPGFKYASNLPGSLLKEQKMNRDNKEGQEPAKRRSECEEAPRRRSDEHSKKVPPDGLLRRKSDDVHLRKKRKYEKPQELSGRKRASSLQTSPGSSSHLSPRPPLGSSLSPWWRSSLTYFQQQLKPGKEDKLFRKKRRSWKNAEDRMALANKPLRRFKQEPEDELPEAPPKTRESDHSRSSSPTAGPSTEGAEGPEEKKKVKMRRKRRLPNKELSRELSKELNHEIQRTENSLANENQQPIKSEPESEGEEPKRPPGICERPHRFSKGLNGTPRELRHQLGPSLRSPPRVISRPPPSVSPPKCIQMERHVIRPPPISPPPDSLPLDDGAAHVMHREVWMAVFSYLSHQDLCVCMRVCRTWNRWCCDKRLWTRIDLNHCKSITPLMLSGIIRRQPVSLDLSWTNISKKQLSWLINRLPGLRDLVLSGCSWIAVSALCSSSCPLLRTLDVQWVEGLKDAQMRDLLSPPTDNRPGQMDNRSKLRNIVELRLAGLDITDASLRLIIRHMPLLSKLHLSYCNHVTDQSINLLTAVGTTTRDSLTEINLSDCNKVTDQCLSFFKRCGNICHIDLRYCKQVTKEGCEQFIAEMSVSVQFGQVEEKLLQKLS

| SMILES | IC50 [nM] |
| --- | --- |
| N#Cc1ccccc1-c1ccc(S(=O)(=O)N2CCN=C2N2CCN(C3CCC3)CC2)cc1 [Example 1, 2-[4-[[2-(4-cyclobutylpiperazin-1-yl)-4,5-dihydroimidazol-1-yl]sulfonyl]phenyl]benzonitrile] | 0.053 |
| COc1cccc(-c2ccc(S(=O)(=O)N3CCN=C3N3CCN(C4CCC4)CC3)cc2)c1 [Example 2, 1-cyclobutyl-4-[1-[4-(3-methoxyphenyl)phenyl]sulfonyl-4,5-dihydroimidazol-2-yl]piperazine] | 0.098 |
| COc1ccc(-c2ccc(S(=O)(=O)N3CCN=C3N3CCN(C4CCC4)CC3)cc2)cc1 [Example 3, 1-cyclobutyl-4-[1-[4-(4-methoxyphenyl)phenyl]sulfonyl-4,5-dihydroimidazol-2-yl]piperazine] | 0.08 |
| O=S(=O)(c1ccc(-c2ccccc2C(F)(F)F)cc1)N1CCN=C1N1CCN(C2CCC2)CC1 [Example 4, 1-cyclobutyl-4-[1-[4-[2-(trifluoromethyl)phenyl]phenyl]sulfonyl-4,5-dihydroimidazol-2-yl]piperazine] | 0.102 |
| N#Cc1ccc(-c2ccc(S(=O)(=O)N3CCN=C3N3CCN(C4CCC4)CC3)cc2)cc1 [Example 5, 4-[4-[[2-(4-cyclobutylpiperazin-1-yl)-4,5-dihydroimidazol-1-yl]sulfonyl]phenyl]benzonitrile] | 0.097 |
| O=S(=O)(c1ccc(-c2ccccn2)cc1)N1CCN=C1N1CCN(C2CCC2)CC1 [Example 6, 1-cyclobutyl-4-[1-[4-(2-pyridyl)phenyl]sulfonyl-4,5-dihydroimidazol-2-yl]piperazine] | 0.102 |
| O=S(=O)(c1ccc(-c2cccnc2)cc1)N1CCN=C1N1CCN(C2CCC2)CC1 [Example 7, 1-cyclobutyl-4-[1-[4-(3-pyridyl)phenyl]sulfonyl-4,5-dihydroimidazol-2-yl]piperazine] | 0.151 |
| Cc1ccccc1-c1ccc(S(=O)(=O)N2CCN=C2N2CCN(C3CCC3)CC2)cc1 [Example 8, 1-cyclobutyl-4-[1-[4-(o-tolyl)phenyl]sulfonyl-4,5-dihydroimidazol-2-yl]piperazine] | 0.077 |
| Cc1cccc(-c2ccc(S(=O)(=O)N3CCN=C3N3CCN(C4CCC4)CC3)cc2)c1 [Example 9, 1-cyclobutyl-4-[1-[4-(m-tolyl)phenyl]sulfonyl-4,5-dihydroimidazol-2-yl]piperazine] | 0.074 |
| Cc1ccc(-c2ccc(S(=O)(=O)N3CCN=C3N3CCN(C4CCC4)CC3)cc2)cc1 [Example 10, 1-cyclobutyl-4-[1-[4-(p-tolyl)phenyl]sulfonyl-4,5-dihydroimidazol-2-yl]piperazine] | 0.145 |
| O=S(=O)(c1ccc(-c2cccc(C(F)(F)F)c2)cc1)N1CCN=C1N1CCN(C2CCC2)CC1 [Example 11, 1-cyclobutyl-4-[1-[4-[3-(trifluoromethyl)phenyl]phenyl]sulfonyl-4,5-dihydroimidazol-2-yl]piperazine] | 0.134 |
| O=S(=O)(c1ccc(-c2ccc(C(F)(F)F)cc2)cc1)N1CCN=C1N1CCN(C2CCC2)CC1 [Example 12, 1-cyclobutyl-4-[1-[4-[4-(trifluoromethyl)phenyl]phenyl]sulfonyl-4,5-dihydroimidazol-2-yl]piperazine] | 0.38 |
| N#Cc1cccc(-c2ccc(S(=O)(=O)N3CCN=C3N3CCN(C4CCC4)CC3)cc2)c1 [Example 13] | 0.145 |
| O=S(=O)(c1ccc(-c2ccccc2)cc1)N1CCN=C1N1CCN(C2CCC2)CC1 [Example 14, 1-cyclobutyl-4-[1-(4-phenylphenyl)sulfonyl-4,5-dihydroimidazol-2-yl]piperazine] | 0.048 |
| O=S(=O)(c1ccc(-c2ccccc2O)cc1)N1CCN=C1N1CCN(C2CCC2)CC1 [Example 15, 2-[4-[[2-(4-cyclobutylpiperazin-1-yl)-4,5-dihydroimidazol-1-yl]sulfonyl]phenyl]phenol] | 0.037 |
| O=S(=O)(c1ccc(-c2cccc(O)c2)cc1)N1CCN=C1N1CCN(C2CCC2)CC1 [Example 16, 3-[4-[[2-(4-cyclobutylpiperazin-1-yl)-4,5-dihydroimidazol-1-yl]sulfonyl]phenyl]phenol] | 0.034 |
| O=S(=O)(c1ccc(-c2ccc(O)cc2)cc1)N1CCN=C1N1CCN(C2CCC2)CC1 [Example 17, 4-[4-[[2-(4-cyclobutylpiperazin-1-yl)-4,5-dihydroimidazol-1-yl]sulfonyl]phenyl]phenol] | 0.021 |
| O=S(=O)(c1ccc(-c2ccncc2)cc1)N1CCN=C1N1CCN(C2CCC2)CC1 [Example 18, 1-cyclobutyl-4-[1-[4-(4-pyridyl)phenyl]sulfonyl-4,5-dihydroimidazol-2-yl]piperazine] | 0.095 |
| O=S(=O)(c1ccc(-c2cccs2)cc1)N1CCN=C1N1CCN(C2CCC2)CC1 [Example 19, 1-cyclobutyl-4-[1-[4-(2-thienyl)phenyl]sulfonyl-4,5-dihydroimidazol-2-yl]piperazine] | 0.027 |
| O=S(=O)(c1ccc(-c2ccsc2)cc1)N1CCN=C1N1CCN(C2CCC2)CC1 [Example 20, 1-cyclobutyl-4-[1-[4-(3-thienyl)phenyl]sulfonyl-4,5-dihydroimidazol-2-yl]piperazine] | 0.021 |

| SMILES | IC50 [nM] |
| --- | --- |
| O=S(=O)(c1ccc(-c2ccccc2Cl)cc1)N1CCN=C1N1CCN(C2CCC2)CC1 [Example 21, 1-[1-[4-(2-chlorophenyl)phenyl]sulfonyl-4,5-dihydroimidazol-2-yl]-4-cyclobutyl-piperazine] | 0.084 |
| O=S(=O)(c1ccc(-c2cccc(Cl)c2)cc1)N1CCN=C1N1CCN(C2CCC2)CC1 [Example 22, 1-[1-[4-(3-chlorophenyl)phenyl]sulfonyl-4,5-dihydroimidazol-2-yl]-4-cyclobutyl-piperazine] | 0.12 |
| O=S(=O)(c1ccc(-c2ccc(Cl)cc2)cc1)N1CCN=C1N1CCN(C2CCC2)CC1 [Example 23, 1-[1-[4-(4-chlorophenyl)phenyl]sulfonyl-4,5-dihydroimidazol-2-yl]-4-cyclobutyl-piperazine] | 0.275 |
| COc1ccccc1-c1ccc(S(=O)(=O)N2CCN=C2N2CCN(C3CCC3)CC2)cc1 [Example 24, 1-cyclobutyl-4-[1-[4-(2-methoxyphenyl)phenyl]sulfonyl-4,5-dihydroimidazol-2-yl]piperazine] | 0.05 |
| O=S(=O)(c1ccc(-c2ccccc2F)cc1)N1CCN=C1N1CCN(C2CCC2)CC1 [Example 25, 1-cyclobutyl-4-[1-[4-(2-fluorophenyl)phenyl]sulfonyl-4,5-dihydroimidazol-2-yl]piperazine] | 0.046 |
| O=S(=O)(c1ccc(-c2cccc(F)c2)cc1)N1CCN=C1N1CCN(C2CCC2)CC1 [Example 26, 1-cyclobutyl-4-[1-[4-(3-fluorophenyl)phenyl]sulfonyl-4,5-dihydroimidazol-2-yl]piperazine] | 0.138 |
| O=S(=O)(c1ccc(-c2ccc(F)cc2)cc1)N1CCN=C1N1CCN(C2CCC2)CC1 [Example 27, 1-cyclobutyl-4-[1-[4-(4-fluorophenyl)phenyl]sulfonyl-4,5-dihydroimidazol-2-yl]piperazine] | 0.071 |
| Cn1ccc(-c2ccc(S(=O)(=O)N3CCN=C3N3CCN(C4CCC4)CC3)cc2)n1 [Example 28, 1-cyclobutyl-4-[1-[4-(1-methylpyrazol-3-yl)phenyl]sulfonyl-4,5-dihydroimidazol-2-yl]piperazine] | 0.049 |
| Cn1nccc1-c1ccc(S(=O)(=O)N2CCN=C2N2CCN(C3CCC3)CC2)cc1 [Example 29, 1-cyclobutyl-4-[1-[4-(2-methylpyrazol-3-yl)phenyl]sulfonyl-4,5-dihydroimidazol-2-yl]piperazine] | 0.049 |
| O=S(=O)(c1ccc(-c2cncnc2)cc1)N1CCN=C1N1CCN(C2CCC2)CC1 [Example 30, 5-[4-[[2-(4-cyclobutylpiperazin-1-yl)-4,5-dihydroimidazol-1-yl]sulfonyl]phenyl]pyrimidine] | 0.06 |
| CC(C)c1ccc(S(=O)(=O)N2CCN=C2N2CCN(C3CCC3)CC2)cc1 [Example 31, 1-cyclobutyl-4-(1-((4-isopropylphenyl)sulfonyl)-4,5-dihydro-1H-imidazol-2-yl)piperazine] | 0.043 |
| O=S(=O)(c1ccc2c(c1)CCCC2)N1CCN=C1N1CCN(C2CCC2)CC1 [Example 32, 1-cyclobutyl-4-(1-tetralin-6-ylsulfonyl-4,5-dihydroimidazol-2-yl)piperazine] | 0.016 |
| CCN1CCN(C2=NCCN2S(=O)(=O)c2ccccc2OC(F)(F)F)CC1 [Example 33, 1-ethyl-4-[1-[2-(trifluoromethoxy)phenyl]sulfonyl-4,5-dihydroimidazol-2-yl]piperazine] | 8.51 |
| O=S(=O)(c1ccc(C2CC2)cc1)N1CCN=C1N1CCN(C2CCC2)CC1 [Example 34, 1-cyclobutyl-4-[1-(4-cyclopropylphenyl)sulfonyl-4,5-dihydroimidazol-2-yl]piperazine] | 0.058 |
| O=S(=O)(c1cccc(C2CC2)c1)N1CCN=C1N1CCN(C2CCC2)CC1 [Example 35, 1-cyclobutyl-4-[1-(3-cyclopropylphenyl)sulfonyl-4,5-dihydroimidazol-2-yl]piperazine] | 0.087 |
| N#Cc1ccc2cc(S(=O)(=O)N3CCN=C3N3CCN(C4CCC4)CC3)ccc2c1 [Example 36, 6-[[2-(4-cyclobutylpiperazin-1-yl)-4,5-dihydroimidazol-1-yl]sulfonyl]naphthalene-2-carbonitrile] | 0.13 |
| CC(C)c1ccc(S(=O)(=O)N2CCN=C2N2CCN(C3CCC3)C(C)C2)cc1 (stereo not drawn) [Example 37, 1-cyclobutyl-4-[1-(4-isopropylphenyl)sulfonyl-4,5-dihydroimidazol-2-yl]-2-methyl-piperazine] | 0.689 |
| CC(C)c1ccc(S(=O)(=O)N2CCN=C2N2CCN(CC3CC3C)CC2)cc1 (stereo not drawn) [Example 38, 1-[1-(4-isopropylphenyl)sulfonyl-4,5-dihydroimidazol-2-yl]-4-[(2-methylcyclopropyl)methyl]piperazine] | 0.492 |
| CC1CC(N2CCN(C3=NCCN3S(=O)(=O)c3ccc(C(C)C)cc3)CC2)C1 (stereo not drawn) [Example 39, 1-[1-(4-isopropylphenyl)sulfonyl-4,5-dihydroimidazol-2-yl]-4-(3-methylcyclobutyl)piperazine] | 0.86 |

Reference: patent publication US10202354B2, “Therapeutic compounds and uses thereof” (GENENTECH, INC., priority 2015, dated 2019)
